No end group written: not given here.
Tests used:
[1] = tested on: CTX-immunosuppressed Balb/c mice; experiment: Serum cytokine and immunoglobulin ELISA in CTX-immunosuppressed mice; assay type: in vivo, mouse; conditions: peptide 10 mg/kg ip days 4-10, ELISA, n = 12
Description: (§1) Sigma-Aldrich, St. Louis, MO, USA) group, a LL-37 group, a Tα1 group, and a LTAa group. For the first 3 days, CTX (80 mg/kg mouse weight) was administered intraperitoneally once daily to establish the immunosuppressed animal model. From days 4 to 10 (7 days), peptides (10 mg/kg mouse weight) were administered intraperitoneally each day. The CTX group was only treated with CTX, and the control group was given sterile saline. The dose volume was 200 μL. Twenty-four hours after the last dose, the mice were killed and their tissues and blood collected for analysis. The body weight index was calculated in the following way:(2) Index (%)=final body weight-[…] body weight/initial body weight ×100% Serum was obtained from blood by centrifugation at 1000 × g for 20 min. Levels of TNF-α, IL-6, IL-1β, IgG, IgA, and IgM in the serum were detected by ELISA.

[2] = Ex vivo stability in plasma; assay type: in vitro ADME; conditions: rat plasma, in vitro, 37 °C, HPLC, log-linear regression; mean ± SEM of three biological replicates; read-out: t1/2, half-life in plasma (converted)
Description: The samples were collected into pre-chilled tubes containing 1 mL of acidic acetone (hydrochloric acid/acetone/H2O, 1:40:5, by volume). Subsequently, the mixture was centrifuged at 2 × 10^4 rpm at 4 °C for 20 min. The precipitates were dried in vacuo. The dried precipitates were dissolved in 0.5 mL of 1 M acetic acid. The peptide analysis was carried out according to the protocol for the study of Tα1 using HPLC [51]. The half-lives of the target peptides were calculated by a logarithm-linear regression analysis of the peptide concentrations.

splenocyte T lymphocytes = experiment: T lymphocyte subsets in splenocytes by flow cytometry; assay type: in vivo, mouse; conditions: versus group treated with CTX alone, peptide 10 mg/kg ip days 4-10, n = 12
Description: The spleen was collected, ground, and passed through 40-μm-mesh cell strainers filled with PBS to harvest the cell suspension. The cells were stained with CD3- PerCP, CD4-APC, and CD8-FITC for 30 min at 4 °C for T lymphocyte measurements. The results were analyzed using a Guava® easyCyte^TM 6-21 system and Guavasoft 3.1.1 software (Millipore, Burlington, MA, USA).

TLR4-NF-κB pathway = experiment: Western blot of TLR4-NF-κB pathway proteins in CTX-treated mice; assay type: in vivo, mouse; conditions: CTX-treated mice with or without LTAa, n = 3
Description: as §1, with “Whole protein” for “Serum was obtained from blood by centrifugation at 1000 × g for 20 min. Levels of TNF-α, IL-6, IL-1β, IgG, IgA, and IgM”, “serum was collected using a whole-protein extraction kit (Nanjing KeyGEN Biotech, Nanjing, China) according to the manufacturer's instructions. The protein concentration was measured using a bicinchoninic acid kit (Nanjing KeyGEN Biotech). The different proteins” for “serum”, “separated” for “detected”, “sodium dodecyl sulfate polyacrylamide gel electrophoresis and transferred onto polyvinylidene difluoride membranes (Bio-Rad). […]” for “ELISA.”

IGKEFKRIVQRIKDFLRNLVPRTEKEKKEVVE [LTAa]
serum TNF-α, IL-6 and IL-1β levels [1]: significantly higher TNF-α, IL-6, and IL-1β concentrations than those in the Tα1- or LL-37-treated groups
half-life [2]: 4.2 ± 1.13 h
CD4+:CD8+ T lymphocyte ratio (splenocyte T lymphocytes): higher
TLR4, MyD88 and TRAF6 expression (TLR4-NF-κB pathway): increasing

From publication PMC6940896, “Development of a Highly Efficient Hybrid Peptide That Increases Immunomodulatory Activity Via the TLR4-Mediated Nuclear Factor-κB Signaling Pathway” (International Journal of Molecular Sciences, 2019)
